# From article PMC4829596 (Frontiers in Microbiology, 2016)
# Like-named read-outs stand apart in the source and are kept apart here.
# How the values were obtained:
# [1] = test system: S. aureus; test: Determination of MIC; format: cell-based, Staphylococcus aureus; details: for MIC: Staphylococcus aureus
# Protocol: (§1) Minimal inhibitory concentrations (MICs) of purified compounds and commercially available standards were assessed against S. aureus, C. albicans, P. aeruginosa, K. pneumoniae, E. coli, ESBL K. pneumoniae, ESBL E. coli and the two MRSA strains (B337919 and B335466). Stock solutions of 5 × 10^6 μg/l of p-hydroxybenzaldehyde, and phenyllactic acid were prepared using water. Stock solutions of 1 × 10^8 μg/l indole-3-carboxylic acid, PAA and indole-3-acetic acid were prepared using methanol and diluted with water (working solution of 5 × 10^6 μg/l). Stocks of 1 × 10^6 μg/l of cFP and cPM were dissolved in water. […] Methanol and water were used as control.
# [2] = test system: MRSA Staphylococcus (S.) aureus B335466; test: Determination of MIC; format: cell-based
# Protocol: as §1
# [3] = test system: MRSA Staphylococcus (S.) aureus B337919; test: Determination of MIC; format: cell-based
# Protocol: as §1
# [4] = test system: P. aeruginosa; test: Determination of MIC; format: cell-based, Pseudomonas aeruginosa; details: for MIC: Pseudomonas aeruginosa
# Protocol: as §1
# [5] = test system: C. albicans; test: Determination of MIC; format: cell-based, Candida albicans; details: for MIC: Candida albicans
# Protocol: as §1
# [6] = test system: E. coli; test: Determination of MIC; format: cell-based, Escherichia coli; details: for MIC: Escherichia coli
# Protocol: as §1
# [7] = test system: ESBL E. coli; test: Determination of MIC; format: cell-based, Escherichia coli; details: for MIC: Escherichia coli
# Protocol: as §1
# [8] = test system: ESBL K. pneumoniae; test: Determination of MIC; format: cell-based, Klebsiella pneumoniae; details: for MIC: Klebsiella pneumoniae
# Protocol: as §1
# [9] = test system: K. pneumoniae; test: Determination of MIC; format: cell-based, Klebsiella pneumoniae; details: for MIC: Klebsiella pneumoniae
# Protocol: as §1
# [10] = test system: human hepatocytic (HepG2) cells; test: Cytotoxicity assay, lactate dehydrogenase release; format: cell-based; details: for % of living HepG2 cells: 24 h, LDH
# Protocol: (§2) Cytotoxicity of the fungal extract and the identified compounds was determined measuring lactate dehydrogenase release using human intestinal epithelial (Caco2) and human hepatocytic (HepG2) cells. […] Cells were seeded into 96-well plates (5 × 10^4 cells per well) and incubated until a confluent cell layer had developed. After discarding of the media cells were incubated with 50 μl of media and 50 μl of fungal extract or compound (final concentration: PAA 2 × 10^6 μg/l, 4FP 2 × 10^6 μg/l, ICA 2 × 10^6 μg/l, IAA 2 × 10^5 μg/l, PLA 2 × 10^6 μg/l, cPM 2 × 10^6μg/l and cFP 2 × 10^6 μg/l) for 24 h at 37°C. […] LDH release was measured according to the manufacturer’s protocol (Sigma–Aldrich, USA).
# [11] = test system: human intestinal epithelial (Caco2) cells; test: Cytotoxicity assay, lactate dehydrogenase release; format: cell-based; details: for % of living Caco2 cells: 24 h, LDH; for dead cells: at the determined MIC concentrations, Caco2
# Protocol: as §2
# [12] = test system: Caco2 cells; test: XTT assay, metabolic active cells; format: cell-based, human; details: for % of metabolic active Caco2 cells: XTT
# Protocol: (§3) In parallel the % of metabolic cells was measured using the XTT [2,3-Bis-(2-methoxy-4-nitro-5-sulfophenyl)-2H-tetra zolium-5-carboxanilide] assay (Thermo Scientific). Briefly, after treatment with the fungal extract or the different compounds cells were incubated with XTT and phenanzine methosulfate (Thermo Scientific) for 2 h. Absorbance was measured at 450 nm and % of metabolic active cells was calculated versus the control sample (media). As controls we incubated the cells without fungal cultures or compound, and with VPA alone.
# [13] = test system: HepG2 cells; test: XTT assay, metabolic active cells; format: cell-based, human
# Protocol: as §3
# [14] = test system: Caco2 and HepG2 cells; format: cell-based; details: at the determined MIC concentrations; range over compounds and cell lines
# Protocol: as §2
# [15] = test system: higher fungi; set-up: method as in Strom et al., 2002; details: ref Strom et al., 2002; cited from earlier work
# [16] = test system: Bacillus subtilis, S. aureus and Micrococcus luteus; set-up: method as in Jayatilake et al., 1996; Thomas et al., 2010; details: ref Jayatilake et al., 1996; Thomas et al., 2010; cited from earlier work
# [17] = test system: acetylation of histone H3 K9 and K14; test: Histone posttranslational modifications by Western blot; format: cell-based, Doratomyces microsporus; details: VPA-treated D. microsporus cultures, 24, 48, 72 h
# Protocol: Mycelia from the D. microsporus cultures were harvested after 24, 48, and 72 h by filtration and frozen in liquid nitrogen. Histones were extracted under acidic conditions as described by [Honda and Selker (2008)]. Samples were suspended in Laemmli’s SDS sample buffer and quantified with Pierce BCA Protein Assay (Thermo Scientific). Fifteen microgram of purified histones were separated on 15% SDS-PAGE gel and subsequently transferred to nitrocellulose membrane (GE Healthcare) by electroblotting. Histone H3 acetylation (H3Ac) was detected with primary antibody specific to H3Ac (Millipore, 06-599). As a loading control histone H3 C-terminus was detected with anti H3 C-terminus antibody (Abcam, 1791). The primary antibodies were identified with anti- rabbit (Sigma–Aldrich, A0545) horseradish peroxidase (HRP) conjugated secondary antibody. Chemiluminescence was detected with Clarity^TM ECL Western Substrate and ChemiDoc^TM XRS (Bio- Rad).
# [18] = set-up: method as in Rodloff et al., 2008; details: ref Rodloff et al., 2008; cited from earlier work
# [19] = test system: MRSA strain B335466; test: Ampicillin MIC alone and in combination; format: cell-based; details: Staphylococcus aureus
# Protocol: (§4) Furthermore we studied the ability of PAA, cPM and cFP to increase antimicrobial activity of ampicillin against both ESBL and MRSA strains. The combination of cPM (100 mg/l) with ampicillin decreased the MIC value from 100 to 10 mg/l against the MRSA strain B335466 (Figure 5C).
# [20] = test system: MRSA strain B337919; test: Ampicillin MIC alone and in combination; format: cell-based; details: Staphylococcus aureus
# Protocol: as §4
# [21] = test system: ESBL E. coli strain; test: Ampicillin in combination; format: cell-based, Escherichia coli; details: ampicillin combined with PAA, cPM or cFP
# Protocol: as §4
# [22] = test system: ESBL K. pneumoniae strain; test: Ampicillin in combination; format: cell-based, Klebsiella pneumoniae; details: ampicillin combined with PAA, cPM or cFP
# Protocol: as §4
# [23] = ESBL K. pneumoniae, read-out: MIC
Compound,% of living HepG2 cells ([10]; compound 2mg/ml) [%],% of living Caco2 cells ([11]; compound 2mg/ml) [%],% of metabolic active Caco2 cells ([12]; compound 2mg/ml) [%],% of metabolic active HepG2 cells ([13]; compound 2mg/ml) [%],dead cells [14],"MIC ([1]; S. aureus, read-out: MIC) [µg/mL]","MIC ([2]; MRSA 335, read-out: MIC) [µg/mL]","MIC ([3]; MRSA 337, read-out: MIC) [µg/mL]",MIC [4] [µg/mL],"MIC ([6]; E. coli, read-out: MIC) [µg/mL]","MIC ([7]; ESBL E. coli, read-out: MIC) [µg/mL]","MIC [8, 23] [µg/mL]","MIC ([9]; K. pneumoniae, read-out: MIC) [µg/mL]",further results
"O=C1NC(Cc2ccccc2)C(=O)N2CCCC12 [cFP, cyclo-(L-phenylalanine-L-proline)]",5.11,4.28,106.66,116.63,3.99–8.61%,–,–,–,–,–,–,–,–,"Inhibitory concentration ([1]; lowest concentration at which the inhibitory effect was detectable, S. aureus): 2 g/L; Inhibitory concentration ([2]; lowest concentration at which the inhibitory effect was detectable, MRSA 335): 2 g/L; Inhibitory concentration ([3]; lowest concentration at which the inhibitory effect was detectable, MRSA 337): 2 g/L; Inhibitory concentration ([4]; lowest concentration at which the inhibitory effect was detectable): 5 g/L; Inhibitory concentration ([5]; lowest concentration at which the inhibitory effect was detectable, C. albicans): 2.5 g/L; Inhibitory concentration ([6]; lowest concentration at which the inhibitory effect was detectable, E. coli): 5 g/L; Inhibitory concentration ([7]; lowest concentration at which the inhibitory effect was detectable, ESBL E. coli): 5 g/L; Inhibitory concentration ([8]; lowest concentration at which the inhibitory effect was detectable, ESBL K. pneumoniae): 3 g/L; Inhibitory concentration ([9]; lowest concentration at which the inhibitory effect was detectable, K. pneumoniae): 3 g/L; MIC [15]: 20000 µg/mL; antimicrobial activity [16]: no antimicrobial activity"
"O=C(O)Cc1ccccc1 [PAA, phenylacetic acid]",6.99,6.53,113.54,122.9,3.99–8.61%,–,–,–,–,–,–,–,–,MIC [1]: 2000 µg/mL; MIC [2]: 2000 µg/mL; MIC [3]: 2000 µg/mL; MIC [5]: 2500 µg/mL; MIC [6]: 2000 µg/mL; MIC [7]: 2000 µg/mL; MIC [8]: 2500 µg/mL; MIC [9]: 2500 µg/mL
"O=C(O)C(O)Cc1ccccc1 (stereo not drawn) [PLA, phenyllactic acid]",54.63,19.65,41.48,66.01,–,2000,2000,2000,5000,2500,5000,5000,2500,"dead cells ([10]; at the determined MIC concentrations, HepG2): 54.63%; dead cells [11]: 19.7%"
"CCCC(CCC)C(=O)O [VPA, valproic acid]",–,–,–,–,–,–,–,–,–,–,–,–,–,acetylation of the N-terminal lysines of histone 3 compared to the untreated control culture [17]: could not detect any significant increase in acetylation
"O=C(O)Cc1c[nH]c2ccccc12 [IAA, indole-3-acetic acid]",–,–,–,–,–,400,–,–,2000,1750,1750,2000,400,"MIC ([2]; MRSA 335): 400 µg/mL; MIC ([2]; MRSA strain B335466, read-out: MIC): 400 µg/mL; MIC ([3]; MRSA 337): 200 µg/mL; MIC ([3]; MRSA strain B337919, read-out: MIC): 200 µg/mL; MIC ([5]; C. albicans, read-out: MIC): 400 µg/mL; % of living HepG2 cells ([10]; compound 0.2mg/ml): 7.27 ± 1.77%; % of living Caco2 cells ([11]; compound 0.2mg/ml): 8.61%; % of metabolic active Caco2 cells ([12]; compound 0.2mg/ml): 103.64%; % of metabolic active HepG2 cells ([13]; compound 0.2mg/ml): 108.28%"
C[C@H]1COc2c(N3CCN(C)CC3)c(F)cc3c(=O)c(C(=O)O)cn1c23 [levofloxacin],–,–,–,–,–,–,–,–,–,–,–,–,–,accepted MIC values for antibiotics in clinical use [18]: 0.003 µg/mL
"O=Cc1ccc(O)cc1 [4FP, p-hydroxybenzaldehyde]",7.86,25.94,32.06,57.33,–,2000,2500,2500,2500,2500,2500,2500,2500,"MIC ([5]; C. albicans, read-out: MIC): 1000 µg/mL; dead cells [11]: 25.9%; metabolic active cells ([12]; human): 57.3%"
CC1(C)S[C@@H]2[C@H](NC(=O)[C@H](N)c3ccccc3)C(=O)N2[C@H]1C(=O)O [ampicillin],–,–,–,–,–,–,–,–,–,–,–,–,–,MIC ([19]; ampicillin alone): 100 µg/mL; MIC ([19]; combined with PAA (1 g/l)): 50 µg/mL; MIC ([19]; combined with cPM (100 mg/l)): 10 µg/mL; MIC ([20]; ampicillin alone): 100 µg/mL; MIC ([20]; combined with cPM (2 g/l)): 50 µg/mL; synergistic or additive effect [21]: No synergistic or additive effect; synergistic or additive effect [22]: No synergistic or additive effect
co-trimoxazole,–,–,–,–,–,–,–,–,–,–,–,–,–,accepted MIC values for antibiotics in clinical use [18]: 100 µg/mL
"O=C(O)c1c[nH]c2ccccc12 [ICA, indole-3-carboxylic acid]",4.86,8.36,97.59,122.3,3.99–8.61%,2000,2000,2000,2000,1000,1000,2000,2000,–
